Target: T1, S. aureus TrmD (Staphylococcus aureus, UniProt Q2FZ43)
T1 construct: made in house; host or cells: E. coli BL21
T1 sequence (Q2FZ43 1-245): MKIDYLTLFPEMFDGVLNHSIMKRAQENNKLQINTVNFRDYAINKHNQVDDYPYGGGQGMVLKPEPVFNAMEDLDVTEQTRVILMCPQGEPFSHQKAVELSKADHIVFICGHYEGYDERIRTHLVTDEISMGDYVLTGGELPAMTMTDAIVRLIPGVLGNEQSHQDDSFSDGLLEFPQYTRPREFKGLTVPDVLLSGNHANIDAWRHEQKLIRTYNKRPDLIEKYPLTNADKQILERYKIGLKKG
Assay: nanoSAR direct-to-biology FP displacement screening of crude triazoles
Format: binding
Details: crude triazole at 1 μM, assuming full conversion; 500 nM TrmD, 10 nM tracer 4; read-out: % displaced tracer
Outline: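 Crude CuAAC triazoles from alkyne 7 and 320 diverse azides were screened by FP displacement of 10 nM tracer 4 from 500 nM S. aureus TrmD. Buffer was 40 mM Tris HCl, 100 mM NaCl, 10 mM MgCl2, 5% glycerol, pH 7.5.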

SMILES | inhibition at 1 µM [%]
O=c1[nH]cnc2[nH]cc(-c3cn([C@@H]4CCc5cc(Cl)ccc54)nn3)c12 [Compound 01C03, Clc1cc2c(cc1)[C@H](N3N=NC(C=4C=5C(=O)NC=NC5NC4)=C3)CC2] | 72
NC1(c2noc(Cn3cc(-c4c[nH]c5nc[nH]c(=O)c45)nn3)n2)CCCCCC1 [Compound 02E06, O=C1NC=NC=2NC=C(C=3N=NN(C3)CC=4ON=C(N4)C5([NH3+])CCCCCC5)C12] | 24
COc1ccccc1C(C)(C)n1cc(-c2c[nH]c3nc[nH]c(=O)c23)nn1 [Compound 02B08, O=C1NC=NC=2NC=C(C=3N=NN(C3)C(c4c(OC)cccc4)(C)C)C12] | 5.49
O=c1[nH]cnc2[nH]cc(-c3cn(CCn4cnc5ccccc54)nn3)c12 [Compound 03B04, O=C1NC=NC=2NC=C(C=3N=NN(C3)CCN4c5c(N=C4)cccc5)C12] | 71
COCCn1cc(-c2c[nH]c3nc[nH]c(=O)c23)nn1 [Compound 03C11, O=C1NC=NC=2NC=C(C=3N=NN(C3)CCOC)C12] | 29
O=c1[nH]cnc2[nH]cc(-c3cn(CCn4ccccc4=O)nn3)c12 [Compound 01C11, O=C1N(C=CC=C1)CCN2N=NC(C=3C=4C(=O)NC=NC4NC3)=C2] | 52
O=c1[nH]cnc2[nH]cc(-c3cn([C@@H]4CCCc5cccnc54)nn3)c12 [Compound 02G11, O=C1NC=NC=2NC=C(C=3N=NN(C3)[C@H]4c5ncccc5CCC4)C12] | 18
O=c1[nH]cnc2[nH]cc(-c3cn(-c4nccs4)nn3)c12 [Compound 02D03, S1C(=NC=C1)N2N=NC(C=3C=4C(=O)NC=NC4NC3)=C2] | 7
O=c1[nH]cnc2[nH]cc(-c3cn(C[C@@H]4CCCCNC4)nn3)c12 [Compound 03H08, O=C1NC=NC=2NC=C(C=3N=NN(C3)C[C@H]4C[NH2+]CCCC4)C12] | 81
CCOC(=O)C12CC(Cn3cc(-c4c[nH]c5nc[nH]c(=O)c45)nn3)(C1)OC21CCOCC1 [Compound 03D04, O=C(OCC)C12C3(OC(CN4N=NC(C=5C=6C(=O)NC=NC6NC5)=C4)(C1)C2)CCOCC3] | 51
O=c1[nH]cnc2[nH]cc(-c3cn(C[C@H](O)Cc4cccc(F)c4)nn3)c12 [Compound 02H06, Fc1cc(ccc1)C[C@@H](O)CN2N=NC(C=3C=4C(=O)NC=NC4NC3)=C2] | 27
O=c1[nH]cnc2[nH]cc(-c3cn(Cc4cnns4)nn3)c12 [Compound 03G02, S1N=NC=C1CN2N=NC(C=3C=4C(=O)NC=NC4NC3)=C2] | 73
CC(C)n1cc(-c2c[nH]c3nc[nH]c(=O)c23)nn1 [Compound 01A05, O=C1NC=NC=2NC=C(C=3N=NN(C3)C(C)C)C12] | 23
Cc1ccc([C@@H](O)Cn2cc(-c3c[nH]c4nc[nH]c(=O)c34)nn2)cc1 [Compound 03D01, O=C1NC=NC=2NC=C(C=3N=NN(C3)C[C@H](O)c4ccc(cc4)C)C12] | 65
O=c1[nH]cnc2[nH]cc(-c3cn(Cc4cccc(Cl)c4)nn3)c12 [Compound 03D11, Clc1cc(ccc1)CN2N=NC(C=3C=4C(=O)NC=NC4NC3)=C2] | 75
C[C@@H](C(=O)Nc1ccccc1)n1cc(-c2c[nH]c3nc[nH]c(=O)c23)nn1 [Compound 01F02, O=C1NC=NC=2NC=C(C=3N=NN(C3)[C@H](C(=O)Nc4ccccc4)C)C12] | 28
Cc1nc(C)c(Cn2cc(-c3c[nH]c4nc[nH]c(=O)c34)nn2)o1 [Compound 03B08, O=C1NC=NC=2NC=C(C=3N=NN(C3)CC=4OC(=NC4C)C)C12] | 50
O=c1[nH]cnc2[nH]cc(-c3cn(Cc4ccncc4)nn3)c12 [Compound 04A04, O=C1NC=NC=2NC=C(C=3N=NN(C3)Cc4ccncc4)C12] | 11
COC1([C@H](CO)n2cc(-c3c[nH]c4nc[nH]c(=O)c34)nn2)CCC1 [Compound 02C06, O=C1NC=NC=2NC=C(C=3N=NN(C3)[C@H](C4(OC)CCC4)CO)C12] | 5

SMILES | inhibition at 1 µM [%]
O=c1[nH]cnc2[nH]cc(-c3cn(-c4ccc5c(c4)OCO5)nn3)c12 [Compound 03C05, O=C1NC=NC=2NC=C(C=3N=NN(c4cc5OCOc5cc4)C3)C12] | 59
O=c1[nH]cnc2[nH]cc(-c3cn(-c4ccc(OC(F)(F)F)c(Cl)c4)nn3)c12 [Compound 01B11, Clc1c(OC(F)(F)F)ccc(N2N=NC(C=3C=4C(=O)NC=NC4NC3)=C2)c1] | 16
C[C@@H](n1cc(-c2c[nH]c3nc[nH]c(=O)c23)nn1)C12CC(CO1)C2 [Compound 01F11, O=C1NC=NC=2NC=C(C=3N=NN(C3)[C@@H](C45OCC(C4)C5)C)C12] | 26
O=c1[nH]cnc2[nH]cc(-c3cn(C4CC4)nn3)c12 [Compound 01B05, O=C1NC=NC=2NC=C(C=3N=NN(C3)C4CC4)C12] | 12
CC(C)(C)Cn1cc(-c2c[nH]c3nc[nH]c(=O)c23)nn1 [Compound 04A03, O=C1NC=NC=2NC=C(C=3N=NN(C3)CC(C)(C)C)C12] | 19
O=c1[nH]cnc2[nH]cc(-c3cn([C@@H]4CCOC4)nn3)c12 [Compound 03E01, O=C1NC=NC=2NC=C(C=3N=NN(C3)[C@H]4COCC4)C12] | 27
O=c1[nH]cnc2[nH]cc(-c3cn(C4(C(F)F)CC4)nn3)c12 [Compound 02A12, FC(F)C1(N2N=NC(C=3C=4C(=O)NC=NC4NC3)=C2)CC1] | 18
Cc1nnc(Cn2cc(-c3c[nH]c4nc[nH]c(=O)c34)nn2)o1 [Compound 01C02, O=C1NC=NC=2NC=C(C=3N=NN(C3)CC=4OC(=NN4)C)C12] | 27
O=c1[nH]cnc2[nH]cc(-c3cn([C@H]4COC[C@@H]4n4cccn4)nn3)c12 [Compound 04D04, O=C1NC=NC=2NC=C(C=3N=NN(C3)[C@@H]4[C@@H](N5N=CC=C5)COC4)C12] | 51
CC(C)Cn1cc(-c2c[nH]c3nc[nH]c(=O)c23)nn1 [Compound 02F06, O=C1NC=NC=2NC=C(C=3N=NN(C3)CC(C)C)C12] | 1.22
O=c1[nH]cnc2[nH]cc(-c3cn(Cc4nnc(C5CC5)o4)nn3)c12 [Compound 04E03, O=C1NC=NC=2NC=C(C=3N=NN(C3)CC=4OC(=NN4)C5CC5)C12] | 44
O=c1[nH]cnc2[nH]cc(-c3cn([C@H]4CCNC4)nn3)c12 [Compound 03D07, O=C1NC=NC=2NC=C(C=3N=NN(C3)[C@@H]4C[NH2+]CC4)C12] | 27
CC(C)CCn1cc(-c2c[nH]c3nc[nH]c(=O)c23)nn1 [Compound 01A09, O=C1NC=NC=2NC=C(C=3N=NN(C3)CCC(C)C)C12] | 26
C[C@H](c1ccc(Cl)cc1)n1cc(-c2c[nH]c3nc[nH]c(=O)c23)nn1 [Compound 02H11, Clc1ccc(cc1)[C@H](N2N=NC(C=3C=4C(=O)NC=NC4NC3)=C2)C] | 41
O=c1[nH]cnc2[nH]cc(-c3cn(-c4cc(F)cc(F)c4)nn3)c12 [Compound 03F09, Fc1cc(F)cc(N2N=NC(C=3C=4C(=O)NC=NC4NC3)=C2)c1] | 25
C[C@H](c1ccccc1F)n1cc(-c2c[nH]c3nc[nH]c(=O)c23)nn1 [Compound 01E02, Fc1c(cccc1)[C@H](N2N=NC(C=3C=4C(=O)NC=NC4NC3)=C2)C] | 50
Cn1ccc(-n2cc(-c3c[nH]c4nc[nH]c(=O)c34)nn2)n1 [Compound 03G05, O=C1NC=NC=2NC=C(C=3N=NN(C4=NN(C=C4)C)C3)C12] | 25
COC(=O)Cn1cc(-c2c[nH]c3nc[nH]c(=O)c23)nn1 [Compound 01E05, O=C(OC)CN1N=NC(C=2C=3C(=O)NC=NC3NC2)=C1] | 11

From publication PMC12751012, “Nanoscale Direct-to-Biology Optimization and Structural Insights into Selective S. aureus TrmD Inhibitors” (Journal of Medicinal Chemistry, 2025)
